Results published in patent publication US20030106085A1, “Disruption of the prostaglandin E synthase 2 gene” (Pfizer Inc., priority 2001, published 2003).

How the values were obtained:
[1] = tested on: PGES2 KO and wild type mice; experiment: Acetic acid-induced writhing (acute inflammation/pain model); type: in vivo; details: 10 mg/kg orally, one hour before 0.7% acetic acid i.p., vs vehicle
Experimental: PGES2 KO mice were profiled in two experimental models of inflammation, collagen-induced arthritis (chronic inflammation model) and acetic acid-induced writhing (acute inflammation/pain model). All experiments were performed with age/sex-matched animals propagated on a DBA1/lacJ genetic background. This genetic background is optimal for collagen-induced arthritis (CIA). The phenotype in CIA was further profiled by characterizing the immune responses of PGES2 KO and wild type animals by assessing antibody production and delayed-type hypersensitivity reactions. In summary, results of the CIA and acetic acid-induced writhing models indicate a role for PGES2 in PGE2-mediated chronic inflammation, acute inflammation, and acute inflammatory pain detection as opposed to neuropathic pain detection. Mice were randomized and dosed orally with either vehicle (0.5% (w/w) methylcellulose, Sigma Chemical, #M0512) or 10 mg/kg piroxicam (Sigma Chemical, #P5654). One hour later, 16 μl/g body weight of 0.7% acetic acid was administered intraperitoneally. The mice were placed in a 5-compartment box and the number of stretches was counted for 20 minutes following acetic acid injection.

[2] = tested on: PGES2 KO clone #22F ES cell-derived macrophages; experiment: Rescue of wild type phenotype (cell density) in PGES2 KO ES cell-derived macrophages by PGE2 added to the media; type: cell-based, murine
Experimental: DBA-252 WT (+/+) and PGES KO (−/−) ES cell clones #22D, #22F and #70V were used to develop ES cell in vitro differentiated (IVD) macrophages. WT and KO PGES2 ES cell clones were maintained without PEF feeders in SCML. Two days prior to embryoid body (EB) formation, all ES cell lines were switched to l-SCML medium that contained a base medium of Iscove's MDM (ILTI, #31980-030) supplemented with 15% ES cell qualified fetal calf serum, 0.2 mM L-glutamine, 0.1 mM MEM non-essential amino acids, 1000 u/ml recombinant murine leukemia inhibitory factor, 50 μg/ml Gentamycin and 0.1 mM 2-Mercaptoethanol (Sigma #M-7522).
Embryoid body stage: The WT and KO ES cell clones were dissociated and grown in suspension culture in bacteriology 100 mm dishes in MacEB medium that contained the base medium Iscove's MDM supplemented with 15% ES cell qualified fetal calf serum, 2 mM L-glutamine, 300 μg transferrin (ILTI, #13008-016), 50 μg/ml L-ascorbic acid (Sigma Chemical, #A-4403), 5% PFHM-II (ILTI, #12040-093), 4×10^−4 M monothioglycerol (MTG), and 50 μg/ml Gentamycin. ES cells were grown in suspension for 6 days to form the EB cell aggregates.
Precursor macrophage stage: The EBs were dissociated on day 6 and plated in tissue culture dishes in Mac I medium that contained the base medium Iscove's MDM supplemented with 10% FBS (ILTI, #10439-024), 5% PFHM-II (ILTI, #12040-093), 2 mM L-glutamine, 3 ng/ml M-CSF (Sigma #M-9170), 1 ng/ml IL-3 (PeproTech, Inc., Rocky Hill, N.J., #213-13) and 50 μg/ml Gentamycin. When this cell population became confluent, the macrophage precursors developed as non-adherent clusters and could be harvested every other day from day 14 through day 30.
ES cell-derived macrophages: Non-adherent clusters of macrophage precursors were harvested from the media by centrifugation. Cell pellets were resuspended in Mac II media that contained the base medium Iscove's MDM supplemented with 10% FBS, 5% PFHM-II, 2 mM L-glutamine, 3 ng/ml M-CSF, and 50 μg/ml Gentamycin. […]

SMILES	pain response (number of stretches counted for 20 minutes following acetic acid injection) ([1]; PGES2 KO mice)	pain response (number of stretches counted for 20 minutes following acetic acid injection) ([1]; wild type mice)	macrophage density ([2]; PGES2 KO clone 22F macrophages cultured in 10.0 μM PGE2, added at all stages of differentiation)	macrophage density compared to wild type ([2]; PGES2 KO clone #22F macrophages cultured in 0.1 μM PGE2, added at all stages of differentiation)	macrophage density compared to wild type ([2]; PGES2 KO clone #22F macrophages cultured in 1.0 μM PGE2, added at all stages of differentiation)
CN1C(C(=O)Nc2ccccn2)=C(O)c2ccccc2S1(=O)=O [piroxicam]	had no effect	reduced the response	–	–	–
CCCCC[C@H](O)/C=C/[C@H]1[C@H](O)CC(=O)[C@@H]1C/C=C\CCCC(=O)O [PGE2, Prostaglandin E2]	–	–	approximately 75 % of wild type	equivalent in density to wild type	equivalent in density to wild type
